Reference: article PMC7715017, “Conjugation of Synthetic Polyproline Moietes to Lipid II Binding Fragments of Nisin Yields Active and Stable Antimicrobials” (Frontiers in Microbiology, 2020)
Values after ≈ are worked out from the molar mass of the structure shown. Like-named read-outs stand apart in the source and are kept apart here. Non-standard residues stand in square brackets, D forms with d. Residues, ends and D or L forms follow the SMILES beside them. *: point of attachment. Oic = O=C(O)[C@@H]1C[C@@H]2CCCC[C@@H]2N1; Pent4ynoyl = C#CCCC(=O)*

How the values were obtained:
[1] = system: L. lactis NZ9000 (pEmpty); conditions: broth microdilution (Wiegand et al. 2008); samples in 0.05% acetic acid; strain with empty plasmid
Procedure: (§1) All samples were resuspended in 0.05% aqueous acetic acid solution and the peptide amount was quantified by HPLC according to Schmitt et al. ([Schmitt et al., 2019]). The indicator strains MW2-MRSA, Enterococcus faecium, Listeria monocytogenes, and Lactococcus lactis were first streaked on GM17 plate and cultured overnight. The peptide samples were diluted with 0.05% acetic acid to a concentration of 40–320 μM (depending on the estimated activity of the peptide and the strain tested). The MIC value test was performed according to [Wiegand et al. (2008)].
(§2) M. flavus was used as the indicator strain for the agar well diffusion assay, and 0.15 nmol of each sample was added to each well (Figure 3). […] Antimicrobial activity of all compounds was tested by growth inhibition assays against two clinically relevant Gram-positive pathogens, i.e., methicillin resistant S. aureus and vancomycin resistant E. faecium, as well as L. monocytogenes, and L. lactis. […] For this experiment, an activity test was performed against the NSR producing strain L. lactis NZ9000 (pNSR).

[2] = system: Enterococcus faecium LMG 16003 (vancomycin resistant, VRE)
Procedure: as §1, §2

[3] = system: Listeria monocytogenes LMG 10470
Procedure: as §1, §2

[4] = system: MW2-MRSA (Staphylococcus aureus MW2, methicillin resistant)
Procedure: as §1, §2

[5] = MW2- ( MW2, methicillin resistant)
[6] = broth microdilution (Wiegand et al. 2008), samples in 0.05% acetic acid, quantified by HPLC

| Structure (SMILES) | MIC value, L. lactis NZ9000 (pEmpty) [1] | MIC value, E. faecium ([2]; LMG 16003) | MIC value, L. monocytogenes ([3]; LMG 10470) | MIC value, MW2-MRSA [4, 5] | MIC value, E. faecium [2, 6] | MIC value, L. monocytogenes [3, 6] | MIC value, MW2-MRSA [4, 6] |
| --- | --- | --- | --- | --- | --- | --- | --- |
| C=C1NC(=O)[C@H]([C@@H](C)CC)NC(=O)[C@H](NC(=O)/C(=C/C)NC(=O)[C@@H](N)[C@@H](C)CC)CSC[C@@H](C(=O)N[C@H]2C(=O)N3CCC[C@H]3C(=O)NCC(=O)N[C@H](C(=O)N[C@@H](CCCCN)C(=O)NCCCn3cc(CCC(=O)N4[C@H](C(=O)N5[C@H](C(=O)N6[C@H](C(=O)N[C@@H](CCCCN)C(=O)N[C@@H](CCCCN)C(=O)N[C@@H](CCCCN)C(=O)O)C[C@@H]7CCCC[C@@H]76)C[C@@H]6CCCC[C@@H]65)C[C@@H]5CCCC[C@@H]54)nn3)CS[C@H]2C)NC(=O)[C@H](CC(C)C)NC1=O [Nisin AB + O3K3] | >40 μM | – | – | – | – | – | – |
| C=C1NC(=O)[C@H]([C@@H](C)CC)NC(=O)[C@H](NC(=O)/C(=C/C)NC(=O)[C@@H](N)[C@@H](C)CC)CSC[C@@H](C(=O)N[C@H]2C(=O)N3CCC[C@H]3C(=O)NCC(=O)N[C@H](C(=O)N[C@@H](CCCCN)C(=O)NCCCn3cc(CCC(=O)N4[C@H](C(=O)N5[C@H](C(=O)N6[C@H](C(=O)O)C[C@@H]7CCCC[C@@H]76)C[C@@H]6CCCC[C@@H]65)C[C@@H]5CCCC[C@@H]54)nn3)CS[C@H]2C)NC(=O)[C@H](CC(C)C)NC1=O [Nisin AB + O3] | >40 μM | – | – | – | – | – | – |
| C=C1NC(=O)[C@H]([C@@H](C)CC)NC(=O)[C@H](NC(=O)/C(=C/C)NC(=O)[C@@H](N)[C@@H](C)CC)CSC[C@@H](C(=O)N[C@H]2C(=O)N3CCC[C@H]3C(=O)NCC(=O)N[C@H](C(=O)N[C@@H](CCCCN)C(=O)NCCCn3cc(CCC(=O)N4[C@H](C(=O)N5[C@H](C(=O)N6[C@H](C(=O)N7[C@H](C(=O)N8[C@H](C(=O)N9[C@H](C(=O)O)C[C@@H]%10CCCC[C@@H]%109)C[C@@H]9CCCC[C@@H]98)C[C@@H]8CCCC[C@@H]87)C[C@@H]7CCCC[C@@H]76)C[C@@H]6CCCC[C@@H]65)C[C@@H]5CCCC[C@@H]54)nn3)CS[C@H]2C)NC(=O)[C@H](CC(C)C)NC1=O [Nisin AB + O6] | 20 μM | – | – | – | – | – | – |
| C=C1NC(=O)[C@H]([C@@H](C)CC)NC(=O)[C@H](NC(=O)/C(=C/C)NC(=O)[C@@H](N)[C@@H](C)CC)CSC[C@@H](C(=O)N[C@H]2C(=O)N3CCC[C@H]3C(=O)NCC(=O)N[C@H](C(=O)N[C@@H](CCCCN)C(=O)NCCCn3cc(CCC(=O)N4[C@H](C(=O)N5[C@H](C(=O)N6[C@H](C(=O)N7[C@H](C(=O)N8[C@H](C(=O)N9[C@H](C(=O)N%10[C@H](C(=O)N%11[C@H](C(=O)N%12[C@H](C(=O)O)C[C@@H]%13CCCC[C@@H]%13%12)C[C@@H]%12CCCC[C@@H]%12%11)C[C@@H]%11CCCC[C@@H]%11%10)C[C@@H]%10CCCC[C@@H]%109)C[C@@H]9CCCC[C@@H]98)C[C@@H]8CCCC[C@@H]87)C[C@@H]7CCCC[C@@H]76)C[C@@H]6CCCC[C@@H]65)C[C@@H]5CCCC[C@@H]54)nn3)CS[C@H]2C)NC(=O)[C@H](CC(C)C)NC1=O [Nisin AB + O9] | 5.0 μM | – | – | – | – | – | – |
| C=C1NC(=O)[C@H]([C@@H](C)CC)NC(=O)[C@H](NC(=O)/C(=C/C)NC(=O)[C@@H](N)[C@@H](C)CC)CSC[C@@H](C(=O)N[C@H]2C(=O)N3CCC[C@H]3C(=O)NCC(=O)N[C@H](C(=O)N[C@@H](CCCCN)C(=O)N[C@H]3C(=O)NCC(=O)N[C@@H](C)C(=O)N[C@@H](CC(C)C)C(=O)N[C@@H](CCSC)C(=O)NCC(=O)N[C@H](C(=O)N[C@@H](CC(N)=O)C(=O)NCCCn4cc(CCC(=O)N5[C@H](C(=O)N6[C@H](C(=O)N7[C@H](C(=O)O)C[C@@H]8CCCC[C@@H]87)C[C@@H]7CCCC[C@@H]76)C[C@@H]6CCCC[C@@H]65)nn4)CS[C@H]3C)CS[C@H]2C)NC(=O)[C@H](CC(C)C)NC1=O [Nisin ABC + O3] | 5.0 μM | 20 µM | >80 µM | >80 µM | – | – | – |
| C=C1NC(=O)[C@H]([C@@H](C)CC)NC(=O)[C@H](NC(=O)/C(=C/C)NC(=O)[C@@H](N)[C@@H](C)CC)CSC[C@@H](C(=O)N[C@H]2C(=O)N3CCC[C@H]3C(=O)NCC(=O)N[C@H](C(=O)N[C@@H](CCCCN)C(=O)N[C@H]3C(=O)NCC(=O)N[C@@H](C)C(=O)N[C@@H](CC(C)C)C(=O)N[C@@H](CCSC)C(=O)NCC(=O)N[C@H](C(=O)N[C@@H](CC(N)=O)C(=O)NCCCn4cc(CCC(=O)N5[C@H](C(=O)N6[C@H](C(=O)N7[C@H](C(=O)N8[C@H](C(=O)N9[C@H](C(=O)N%10[C@H](C(=O)N%11[C@H](C(=O)N%12[C@H](C(=O)N%13[C@H](C(=O)O)C[C@@H]%14CCCC[C@@H]%14%13)C[C@@H]%13CCCC[C@@H]%13%12)C[C@@H]%12CCCC[C@@H]%12%11)C[C@@H]%11CCCC[C@@H]%11%10)C[C@@H]%10CCCC[C@@H]%109)C[C@@H]9CCCC[C@@H]98)C[C@@H]8CCCC[C@@H]87)C[C@@H]7CCCC[C@@H]76)C[C@@H]6CCCC[C@@H]65)nn4)CS[C@H]3C)CS[C@H]2C)NC(=O)[C@H](CC(C)C)NC1=O [Nisin ABC + O9] | 5.0 μM | 10 µM | 40 µM | >80 µM | – | – | – |
| C=C1NC(=O)[C@H]([C@@H](C)CC)NC(=O)[C@H](NC(=O)/C(=C/C)NC(=O)[C@@H](N)[C@@H](C)CC)CSC[C@@H](C(=O)N[C@H]2C(=O)N3CCC[C@H]3C(=O)NCC(=O)N[C@H](C(=O)N[C@@H](CCCCN)C(=O)N[C@H]3C(=O)NCC(=O)N[C@@H](C)C(=O)N[C@@H](CC(C)C)C(=O)N[C@@H](CCSC)C(=O)NCC(=O)N[C@H](C(=O)N[C@@H](CC(N)=O)C(=O)O)CS[C@H]3C)CS[C@H]2C)NC(=O)[C@H](CC(C)C)NC1=O [Nisin ABC, reference compound] | 5.0 μM | 40 µM (≈ 75.2 µg/mL) | 40 µM (≈ 75.2 µg/mL) | 40 µM (≈ 75.2 µg/mL) | – | – | – |
| C#CCCC(=O)N1[C@H](C(=O)N2[C@H](C(=O)N3[C@H](C(=O)N[C@@H](CCCCN)C(=O)N[C@@H](CCCCN)C(=O)N[C@@H](CCCCN)C(=O)O)C[C@@H]4CCCC[C@@H]43)C[C@@H]3CCCC[C@@H]32)C[C@@H]2CCCC[C@@H]21 [O3K3] (Pent4ynoyl-[Oic][Oic][Oic]KKK-OH) | >160 μM | >160 µM | >160 µM | >160 µM | – | – | – |
| C#CCCC(=O)N1[C@H](C(=O)N2[C@H](C(=O)N3[C@H](C(=O)O)C[C@@H]4CCCC[C@@H]43)C[C@@H]3CCCC[C@@H]32)C[C@@H]2CCCC[C@@H]21 [O3] | – | >320 µM | >320 µM | >320 µM | – | – | – |
| C#CCCC(=O)N1[C@H](C(=O)N2[C@H](C(=O)N3[C@H](C(=O)N4[C@H](C(=O)N5[C@H](C(=O)N6[C@H](C(=O)N[C@@H](CCCCN)C(=O)N[C@@H](CCCCN)C(=O)N[C@@H](CCCCN)C(=O)O)C[C@@H]7CCCC[C@@H]76)C[C@@H]6CCCC[C@@H]65)C[C@@H]5CCCC[C@@H]54)C[C@@H]4CCCC[C@@H]43)C[C@@H]3CCCC[C@@H]32)C[C@@H]2CCCC[C@@H]21 [O6K3] (Pent4ynoyl-[Oic][Oic][Oic][Oic][Oic][Oic]KKK-OH) | >80 μM | – | – | – | >80 µM | >80 µM | >80 µM |
| C#CCCC(=O)N1[C@H](C(=O)N2[C@H](C(=O)N3[C@H](C(=O)N4[C@H](C(=O)N5[C@H](C(=O)N6[C@H](C(=O)O)C[C@@H]7CCCC[C@@H]76)C[C@@H]6CCCC[C@@H]65)C[C@@H]5CCCC[C@@H]54)C[C@@H]4CCCC[C@@H]43)C[C@@H]3CCCC[C@@H]32)C[C@@H]2CCCC[C@@H]21 [O6] (Pent4ynoyl-[Oic][Oic][Oic][Oic][Oic][Oic]-OH) | – | >320 µM | >320 µM | >320 µM | – | – | – |
| C#CCCC(=O)N1[C@H](C(=O)N2[C@H](C(=O)N3[C@H](C(=O)N4[C@H](C(=O)N5[C@H](C(=O)N6[C@H](C(=O)N7[C@H](C(=O)N8[C@H](C(=O)N9[C@H](C(=O)O)C[C@@H]%10CCCC[C@@H]%109)C[C@@H]9CCCC[C@@H]98)C[C@@H]8CCCC[C@@H]87)C[C@@H]7CCCC[C@@H]76)C[C@@H]6CCCC[C@@H]65)C[C@@H]5CCCC[C@@H]54)C[C@@H]4CCCC[C@@H]43)C[C@@H]3CCCC[C@@H]32)C[C@@H]2CCCC[C@@H]21 [O9, Pentynyl-(Oic)9-OH] (Pent4ynoyl-[Oic][Oic][Oic][Oic][Oic][Oic][Oic][Oic][Oic]-OH) | – | >320 µM | >320 µM | >320 µM | – | – | – |
